These are literature values, as cited in patent US8318912B2, “Targeted immune conjugate comprising an antibody to glycophorin A and a M2e peptide” (priority 2006, dated 2012).

Usually Kd stands for a measure of binding affinity in units of concentration.

For this data set, the target named is vitamin B12-binding protein. To be noted: alternative docking pair to biotin-avidin; read-out: Kd of vitamin B12 bound by vitamin B12-binding protein.

cyanocobalamin [vitamin B12]: the dissociation constant Kd is 0.1 nM.
